Assay results as given in patent publication US20100022584A1, “Modulation of Glutamine Synthetase Activity” (priority 2006, published 2010).
Positions count from the first letter of the chain named.

What was measured:
[1] = biological target: T1, adenylylated WT enzyme, WT (AD) glutamine synthetase (Escherichia coli, UniProt P0A9C5); assay: HPLC forward-reaction glutamine synthetase assay with serine protease inhibitors; type: biochemical, E. coli; conditions: 1 mM inhibitor; for % Reduction in ADP-based Specific Activity / % Reduction in Glutamine-based Specific Activity / % Conversion: WT (AD); for % Reduction in ADP-based Specific Activity / % Reduction in Glutamine-based Specific Activity: 60 min pre-incubation, vs no-inhibitor control, positive = activity increased; for % Conversion: glutamine-based divided by ADP-based specific activity; for inhibition of the enzyme (in words): adenylylated WT enzyme, HPLC assays
T1 construct: made in house; host or cells: E. coli carrying pBSK-ECgln (pBluescript II SK+), continuous culture; YMC11 is the expression strain named for this plasmid
T1 sequence (P0A9C5 2-469 limits assumed): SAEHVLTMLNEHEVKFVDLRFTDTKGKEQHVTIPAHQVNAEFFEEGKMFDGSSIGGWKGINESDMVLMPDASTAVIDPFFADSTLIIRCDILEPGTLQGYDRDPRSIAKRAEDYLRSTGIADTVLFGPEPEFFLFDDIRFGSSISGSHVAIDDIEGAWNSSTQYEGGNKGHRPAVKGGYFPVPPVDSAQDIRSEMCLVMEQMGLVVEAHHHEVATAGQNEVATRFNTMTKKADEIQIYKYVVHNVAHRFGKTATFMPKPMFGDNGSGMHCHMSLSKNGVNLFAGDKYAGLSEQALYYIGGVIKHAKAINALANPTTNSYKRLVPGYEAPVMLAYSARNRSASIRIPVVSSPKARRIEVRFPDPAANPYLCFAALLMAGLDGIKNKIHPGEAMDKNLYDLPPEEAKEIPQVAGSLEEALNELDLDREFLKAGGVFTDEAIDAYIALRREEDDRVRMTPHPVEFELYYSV
Protocol: (§1) This assay was set up to measure glutamine synthetase activity according to the forward reaction, and measures the amount of glutamine formed from […] of L-glutamate in the presence of MnCO3-ATP (the basis of one reaction) and MgATP (the basis of a second reaction). In addition, the amount of ADP formed is also measured in a separate assay, using the same reagents.
(§2) All enzyme preparations were adjusted to the same concentration of protein, and added to the assay mixture in a volume of 50 μl. The addition of the enzyme started the reaction, which was then allowed to proceed for 1 hour. The reaction was stopped by the addition of 6 μl of a 50% solution of trichloroacetic acid. Each assay was then aliquoted into 4 HPLC vials (150 μl per vial), two of which were assayed for glutamate and glutamine using a Phenomenex Luna 5 μC18 Column on an Agilent 100 HPLC instrument. The ATP/ADP assays were run on a Chromolith Performance RP-18c column also using an Agilent 100 HPLC instrument.
(§3) As it is believed that two putative catalytic triads, similar to those in the serine proteases, are involved in the reaction mechanism of glutamine synthetase, certain of the mutants were also assayed by HPLC in the presence of the serine protease inhibitors, AEBSF and PMSF, in order to assess the effect that these inhibitors had on the enzyme. The enzymes assessed were the adenylylated WT enzyme, the deadenylylated WT enzyme, and the mutant enzymes S52A, S52A Y397V, S53A, S53A Y397V, S52A S53A and S52A S53A Y397V. The enzymes were pre-incubated for 60 minutes in the presence of 1 mM PMSF or 1 mM AEBSF. A control reaction was set up for each enzyme, which contained no inhibitor. Each enzyme was then added to assays set up as described above. The assay was allowed to proceed for 60 minutes, then stopped by the addition of […] of 50% TCA, after which they were analysed by HPLC. All assays were run in triplicate.
(§4) In addition to the γ-glutamyl transferase assays, assays were also developed to measure the rate of conversion of ATP and glutamate to ADP and glutamine by HPLC. These were set up as single assays but analysed separately for glutamate and glutamine and ATP and ADP. The conversion rates for glutamate to glutamine, in both the presence of Mn^2+ and Mg^2+ by glutamine synthetase, is referred to as the […] specific activity and is presented in μmoles/min/mg protein. The conversion rates for ATP to ADP, in both the presence of Mn^2+ and Mg^2+ by glutamine synthetase, is referred to as the ADP-based specific activity and is presented in μmoles/min/mg protein. The percentage of conversion was also calculated by dividing the glutamine-based specific activity by the ADP-based specific activity, and this value is interpreted as the ability of the enzyme to complete both steps of the reaction, i.e., glutamate to glutamine and ATP to ADP, at an equivalent level of efficiency.

[2] = biological target: T2, glutamine synthetase mutant S52A (Escherichia coli, UniProt P0A9C5, S53A); assay: as above; type: biochemical, E. coli; conditions: 1 mM inhibitor; for inhibition of the enzyme (in words): HPLC assays; for % Reduction in ADP-based Specific Activity / % Reduction in Glutamine-based Specific Activity: 60 min pre-incubation, vs no-inhibitor control, positive = activity increased; for % Conversion: glutamine-based divided by ADP-based specific activity
T2 construct: made in house; host or cells: E. coli YMC11 (glutamine synthetase auxotroph), pBluescript II SK+
T2 sequence (P0A9C5 2-469 S53A limits assumed): T1 sequence (P0A9C5 2-469 limits assumed) with S52A
Protocol: as §1, §2, §3, §4

O=S(=O)(F)Cc1ccccc1 [PMSF]
% Reduction in ADP-based Specific Activity ([1]; Mg assay): +48.13% | % Reduction in Glutamine-based Specific Activity ([1]; Mg assay): −46.33% | % Conversion ([1]; Mg assay): 42% | % Reduction in ADP-based Specific Activity ([1]; Mn assay): −15.63% | % Reduction in Glutamine-based Specific Activity ([1]; Mn assay): −49.20% | % Conversion ([1]; Mn assay): 61% | inhibition of the enzyme (in words) [1]: found to inhibit | inhibition of the enzyme (in words) [2]: found to inhibit | % Reduction in ADP-based Specific Activity ([2]; Mg assay): −19.51% | % Reduction in Glutamine-based Specific Activity ([2]; Mg assay): −43.54% | % Conversion ([2]; Mg assay): 59% | % Reduction in ADP-based Specific Activity ([2]; Mn assay): −13.41% | % Reduction in Glutamine-based Specific Activity ([2]; Mn assay): −39.84% | % Conversion ([2]; Mn assay): 64%

NCCc1ccc(S(=O)(=O)F)cc1 [AEBSF]
% Reduction in ADP-based Specific Activity ([1]; Mg assay): −34.60% | % Reduction in Glutamine-based Specific Activity ([1]; Mg assay): −24.59% | % Conversion ([1]; Mg assay): 134% | % Reduction in ADP-based Specific Activity ([1]; Mn assay): −26.76% | % Reduction in Glutamine-based Specific Activity ([1]; Mn assay): −14.86% | % Conversion ([1]; Mn assay): 118% | inhibition of the enzyme (in words) [1]: appeared to cause inhibition | inhibition of the enzyme (in words) [2]: appeared to cause inhibition | % Reduction in ADP-based Specific Activity ([2]; Mg assay): −31.77% | % Reduction in Glutamine-based Specific Activity ([2]; Mg assay): −10.61% | % Conversion ([2]; Mg assay): 109% | % Reduction in ADP-based Specific Activity ([2]; Mn assay): +30.66% | % Reduction in Glutamine-based Specific Activity ([2]; Mn assay): +15.27% | % Conversion ([2]; Mn assay): 81%
